Results taken from ChEMBL document CHEMBL1147273, “3-Dimethylallylindole: an antibacterial and antifungal metabolite from Monodora tenuifolia” (1986).
In brackets after ≈: the same amount, converted by molar mass. Activity calls are given as the source filed them. No cut-off for these calls is given here.

Assays:
Bacillus subtilis = assay: Antimicrobial activity against Bacillus subtilis ATCC 6633 by towfold serial dilution method; format: functional
[1] = test system: Mycolicibacterium smegmatis; assay: Antimicrobial activity against Mycobacterium smegmatis ATCC 607 by towfold serial dilution method; format: functional
Staphylococcus aureus = assay: Antimicrobial activity against Staphylococcus aureus ATCC 6538 by towfold serial dilution method; format: functional
Candida albicans [2] = assay: Antimicrobial activity against Candida albicans ATCC 10231 by towfold serial dilution method; format: functional
Candida albicans [3] = assay: Antimicrobial activity against Candida albicans NIH B311 by towfold serial dilution method; format: functional
Candida albicans [4] = assay: Antimicrobial activity against Candida albicans WH by towfold serial dilution method; format: functional
Cryptococcus neoformans = assay: Antimicrobial activity against Cryptococcus neoformans ATCC 32264 by towfold serial dilution method; format: functional
Saccharomyces cerevisiae = assay: Antimicrobial activity against Saccharomyces cerevisiae ATCC 9763 by towfold serial dilution method; format: functional
Helminthosporium = assay: Antimicrobial activity against Helminthosporium sp. NRRL 4671 by towfold serial dilution method; format: functional
Trametes sanguinea = assay: Antimicrobial activity against Pycnoporus sanguineus ATCC 14622 by towfold serial dilution method; format: functional
[5] = test system: Trichophyton mentagrophytes; assay: Antimicrobial activity against Trichophyton mentagrophytes ATCC 9172 by towfold serial dilution method; format: functional
Escherichia coli = assay: Antimicrobial activity against Escherichia coli ATCC 10536 by towfold serial dilution method; format: functional, organism-based
Pseudomonas aeruginosa = assay: Antimicrobial activity against Pseudomonas aeruginosa ATCC 15442 by towfold serial dilution method; format: functional, organism-based
Aspergillus niger = assay: Antimicrobial activity against Aspergillus niger ATCC 16888 by towfold serial dilution method; format: functional, organism-based

- MIC (Bacillus subtilis): 12.5 µg/mL (≈ 67.5 µM)
- MIC [1]: 3.12 µg/mL (≈ 16.8 µM)
- MIC (Staphylococcus aureus): 12.5 µg/mL (≈ 67.5 µM)
- MIC (Candida albicans [2]): 25 µg/mL (≈ 135 µM)
- MIC (Candida albicans [3]): 25 µg/mL (≈ 135 µM)
- MIC (Candida albicans [4]): 25 µg/mL (≈ 135 µM)
- MIC (Cryptococcus neoformans): 12.5 µg/mL (≈ 67.5 µM)
- MIC (Saccharomyces cerevisiae): 12.5 µg/mL (≈ 67.5 µM)
- MIC (Helminthosporium): 0.78 µg/mL (≈ 4.21 µM)
- MIC (Trametes sanguinea): 12.5 µg/mL (≈ 67.5 µM)
- MIC [5]: 1.56 µg/mL (≈ 8.42 µM)
SMILES: CC(C)=CCc1c[nH]c2ccccc12
- Activity (Escherichia coli): inactive
- Activity (Pseudomonas aeruginosa): inactive
- Activity (Aspergillus niger): inactive
